Measurements from article PMC10582583, “The novel cyclophilin inhibitor C105SR reduces hepatic ischaemia–reperfusion injury via mitoprotection” (JHEP Reports, 2023).

Key:
CypD = CypD (Homo sapiens, UniProt P30405); experiment: CypD PPIase activity, chymotrypsin-coupled assay; type: biochemical; conditions: Table 1
[1] = system: isolated mouse liver mitochondria; experiment: Calcium retention capacity (CRC) assay in isolated liver mitochondria; type: biochemical; conditions: for EC50: isolated mouse liver mitochondria; for maximal mitochondrial CRC, diastereoisomer vs racemic mixture: Fig. 2E; for maximal mitochondrial CRC: compound at 100 μM (Fig. 1C)
[2] = system: isolated mouse liver mitochondria; experiment: Ca2+-induced mitochondrial swelling assay; type: biochemical; conditions: energised isolated mouse liver mitochondria
AML-12 cells [3] = experiment: mPTP opening, CoCl2-calcein AM fluorescence-quenching assay, hypoxia/reoxygenation; type: cell-based, mouse; conditions: for prevention of mPTP opening (loss of calcein fluorescence): 1 μM, 4 h hypoxia, 1 h reoxygenation
Protocol: We next evaluated the ability of compounds C105SR and C110SR to inhibit mPTP opening in cells. The hepatocyte cell line AML-12 was subjected to 4 h of hypoxia followed by 1 h of reoxygenation and mPTP opening was monitored using the CoCl2-calcein-acetoxymethyl ester (AM) fluorescence-quenching method.[19] Calcein-AM is a membrane permeable fluorophore which passively diffuses in all subcellular compartments including mitochondria. In the cell, the AM group of the fluorophore is cleaved by ubiquitous intracellular esterases, generating a hydrophilic product that is retained within the cell. The cells are then loaded with the divalent cobalt cation (Co^2+), which quenches calcein fluorescence in all subcellular compartments except the mitochondrial matrix, because the inner mitochondrial membrane is impermeable to cobalt. However, when mPTP is open, cobalt enters mitochondria and quenches mitochondrial calcein fluorescence. […]
(§1) Hypoxia/reoxygenation (H/R) in vitro model. AML-12 mouse hepatocyte line was obtained from American Type Culture Collection (ATCC) and maintained in DMEM/F12 culture medium at 37°C with 5% CO2. HepaRG human hepatocyte line was obtained from American Type Culture Collection (ATCC) and maintained in William’S E culture medium at 37°C with 5% CO2.When indicated, cells were incubated in phosphate buffered saline at 37°C in a hypoxic chamber filled with 94% N2, 1% O2, 5% CO2 for 4 h to mimic ischemic conditions. Then, cells were transferred to a CO2 incubator at 37°C in regular DMEM/F12 culture medium for 1 or 2 h under normoxic conditions (74% N2, 21% O2, 5% CO2). SMCypIs or vehicle (DMSO) were added during the hypoxia period, during the reoxygenation period, or during both. CsA and ALV were used as positive controls for hepatic protection against H/R injury.
Monitoring of mPTP opening. mPTP opening was monitored in AML-12 cells using the CoCl2-calcein AM fluorescence-quenching assay. Cells were loaded with 1 µM calcein-AM (green) for 20 min. Then, 1 mM CoCl2 was added and cells were incubated for another 10 min. Cells were washed and subjected to 4 h of hypoxia followed by 1 h of reoxygenation. Calcein fluorescence was measured using a spectrofluorimeter at excitation and emission wavelengths of 485 nm and 535 nm, respectively. Images were acquired using a standard inverted fluorescence microscope (Zeiss Axio, […]
media during the entire H/R period. Images shown are representative images of 12-18 images. […]
Optical density of purple formazan product was measured at 550 nm. […]

AML-12 cells [4] = experiment: LDH release, hypoxia/reoxygenation; type: cell-based, mouse; conditions: 0.5 μM
Protocol: As expected, cells subjected to hypoxia/reoxygenation were characterised by greater LDH release and reduced cell viability as compared to untreated controls (Fig. 4A and 4B). […]
as §1, with “injury. […]” for “injury.”
Cell viability assays. Lactate dehydrogenase (LDH) release in culture medium was assessed using the commercially non-radioactive CytoTox-96 kit (Promega, Madison, Wisconsin) following the manufacturer’s instructions. Briefly, cell culture media were collected and the LDH activity was determined by measuring absorbance at 491 nm with a spectrometer (Multiskan skyHigh). For 3-(4,5-dimethylthiazol-2-yl)-2,5-diphenyltetrazolium bromide (MTT) assay, cells were incubated with a solution of MTT (0.5 mg/mL) for 2 h at 37°C. The medium was then removed and 50 µL DMSO was added to each well. Optical density of purple formazan product was measured at 550 nm. Cell viability was expressed as a percentage of the untreated control.

AML-12 cells [5] = experiment: Propidium iodide staining, hypoxia/reoxygenation; type: cell-based, mouse; conditions: 1 μM; 4 h hypoxia, 1 h reoxygenation
Protocol: To assess whether the new SMCypIs reduced mPTP opening-induced cell death, propidium iodide fluorescence was measured in cells that had been co-loaded with calcein-AM. As expected, the loss of calcein fluorescence in cells subjected to hypoxia/reoxygenation was associated with enhanced propidium iodide fluorescence (Fig. 3A and 3C).
Calcium retention capacity (CRC) assay. Isolated liver mitochondria (1 mg/mL) energized with 5 mM glutamate/malate were incubated in a buffer allowing respiration of mitochondria (100 mM KCl, 50 mM sucrose, 10 mM HEPES, 5 mM KH2PO4, pH 7.4 at 30°C) supplemented with 1 µM calcium green 5N fluorescent probe. Mitochondria were pulsed with sequential additions of CaCl2 (20 µM) until mPTP opening along with rapid calcium release happened. The calcium concentration in the extra-mitochondrial medium was monitored with a Jasco FP-6300 spectrofluorimeter (Jasco, Bouguenais, France) at 506 nm excitation and 532 nm emission wavelengths.
Mitochondrial swelling assay. Mitochondrial swelling was assessed by measuring changes in absorbance at 540 nm using a Jasco V-530 spectrophotometer (Bouguenais, France) equipped with magnetic stirring and thermostatic control (30°C). […]
Monitoring of mPTP opening. mPTP opening was monitored in AML-12 cells using the CoCl2-calcein AM fluorescence-quenching assay. […] Calcein fluorescence was measured using a spectrofluorimeter at excitation and emission wavelengths of 485 nm and 535 nm, respectively. Images were acquired using a standard inverted fluorescence microscope (Zeiss Axio, […]
Propidium iodide staining. […] Fluorescence was measured using an Infinite 200 Pro fluorescent plate reader (Tecan, Mannedorf, Switzerland) at excitation and emission wavelengths of 533 nm and 617 nm, respectively. Images were acquired using a standard inverted fluorescence microscope (Zeiss Axio, Oberkochen, Germany). […]
Cell viability assays. Lactate dehydrogenase (LDH) release in culture medium was assessed using the commercially non-radioactive CytoTox-96 kit (Promega, Madison, Wisconsin) following the manufacturer’s instructions. […]

Chain of CypD (P30405 30-207): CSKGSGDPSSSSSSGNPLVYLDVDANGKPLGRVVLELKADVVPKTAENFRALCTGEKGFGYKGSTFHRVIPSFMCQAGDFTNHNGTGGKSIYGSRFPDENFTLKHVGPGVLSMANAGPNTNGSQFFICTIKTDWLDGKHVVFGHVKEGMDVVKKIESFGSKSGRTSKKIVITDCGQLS

SMILES | IC50 (CypD) | EC50 [1] | IC50 [2] | inhibition of mPTP opening (AML-12 cells [3]; 0.5 μM) | inhibition of cell death (AML-12 cells [4]) | maximal mitochondrial CRC, diastereoisomer vs racemic mixture [1] | maximal mitochondrial CRC ([1]; basal 160 ± 8) | prevention of mPTP opening (loss of calcein fluorescence) (AML-12 cells [3]) | amount of Ca2+ required to open mPTP (CRC) ([1]; compound at 1 μM, basal 160 ± 8) | propidium iodide fluorescence (AML-12 cells [5])
CSc1ccccc1C1CCCN1C(=O)C(NC(=O)NCc1ccc(N)cc1)c1ccccc1 (stereo not drawn) [Compound C31] | 200 ± 100 nM | 9090 ± 210 nM | 1300 ± 50 nM | not effective | not effective |  |  |  |  | 
COc1ccc(Br)cc1C(NC(=O)NCc1ccc(N)cc1)C(=O)N1CCCC1c1cccc2ccsc12 (stereo not drawn) [Compound C110, 1-(4-aminobenzyl)-3-(2-(2-(benzo[b]thiophen-7-yl)pyrrolidin-1-yl)-1-(5-bromo-2-methoxyphenyl)-2-oxoethyl)urea] | 100 ± 20 nM | 2830 ± 90 nM | 370 ± 6 nM |  |  | 400 ± 27 nmol Ca2+/mg of mitochondrial | 400 ± 27 nmol Ca2+/mg of mitochondrial | not |  | 
COc1ccc(Br)cc1C(NC(=O)NCc1ccc2c(c1)CCCN2)C(=O)N1CCCC1c1cccc2ccsc12 (stereo not drawn) [Compound C105, 1-(2-(2-(benzo[b]thiophen-7-yl)pyrrolidin-1-yl)-1-(5-bromo-2-methoxyphenyl)-2-oxoethyl)-3-((1,2,3,4-tetrahydroquinolin-6-yl)methyl)urea] |  | 2370 ± 110 nM | 690 ± 50 nM |  |  | 407 ± 13 nmol Ca2+/mg of mitochondrial | 407 ± 13 nmol Ca2+/mg of mitochondrial | not |  | 
C/C=C/C[C@@H](C)[C@@H](O)[C@H]1C(=O)N[C@@H](CC)C(=O)N(C)[C@H](C)C(=O)N(CC)[C@@H](C(C)C)C(=O)N[C@@H](C(C)C)C(=O)N(C)[C@@H](CC(C)C)C(=O)N[C@@H](C)C(=O)N[C@H](C)C(=O)N(C)[C@@H](CC(C)C)C(=O)N(C)[C@@H](CC(C)C)C(=O)N(C)[C@@H](C(C)C)C(=O)N1C [ALV, alisporivir, reference compound] | 30 ± 5 nM | 80 ± 20 nM | 50 ± 20 nM |  |  |  |  | substantially prevented | 373 ± 59 nmol Ca2+/mg of mitochondrial | low propidium iodide fluorescence
CSc1ccccc1C1CCCN1C(=O)C(NC(=O)NCc1cccc2c1CCN2)c1ccccc1 (stereo not drawn) [Compound C144, 1-(indolin-4-ylmethyl)-3-(2-(2-(2-(methylthio)phenyl)pyrrolidin-1-yl)-2-oxo-1-phenylethyl)urea] | 310 ± 160 nM | 11760 ± 10 nM | 11570 ± 10 nM |  |  |  | 422 ± 44 nmol Ca2+/mg of mitochondrial |  |  | 
COc1ccc(OC)c(C(NC(=O)NCc2cccc3[nH]ncc23)C(=O)N2CCCC2c2ccccc2SC)c1 (stereo not drawn) [Compound C171, 1-((1H-indazol-4-yl)methyl)-3-(1-(2,5-dimethoxyphenyl)-2-(2-(2-(methylthio)phenyl)pyrrolidin-1-yl)-2-oxoethyl)urea] | 340 ± 130 nM |  |  |  |  |  |  |  |  | 
